≈ marks a conversion by molar mass, not a printed value.
Legend:
Experiment in all cases: In vitro antibacterial evaluation: minimum inhibitory concentration (MIC), broth dilution method
Assay type in all cases: cell-based
Enterococcus sp. = details: for MIC Enterococcus faecalis (ATCC 29212): strain ATCC 29212; for MIC Enterococcus faecalis (GC 4552): strain GC 4552
Protocol: (§1) The minimum inhibitory concentration (MIC), the lowest concentration of the antibiotic which inhibits growth of the test organism, is determined by the broth dilution method using Muller-Hinton II […] (Baltimore Biological Laboratories) following the recommendations of the National Committee for Clinical Laboratory Standards [Methods for dilution antimicrobial susceptibility tests for bacteria that grow aerobically, approved standard M7-A2, National Committee for Clinical Laboratory Standards, Villanova, Pa].
(§2) An inoculum level of 5×10^5 CFU/mL, and a range of antibiotic concentrations (64-0.06 μg/mL) is used. […] The test organisms include a spectrum of Gram-positive bacteria comprised of Staphylococcus sp., Streptococcus sp. and Enterococcus sp. These organisms include recent clinical isolates that are resistant to methicillin, penicillin and/or vancomycin.

Escherichia coli = test system: Escherichia coli
Protocol: as §1, §2

Staphylococcus sp. = details: for MIC Coagulase Negative Staphylococcus (GC 4537): strain GC 4537; for MIC Coagulase Negative Staphylococcus (GC 4538): strain GC 4538; for MIC Coagulase Negative Staphylococcus (GC 4547): strain GC 4547
Protocol: as §1, §2

[1] = broth dilution, 18 hours at 35° C.
[2] = strain SMITH GC 4536, broth dilution, 18 hours at 35° C.
[3] = broth dilution, 5×10^5 CFU/mL, 18 hours at 35° C.
[4] = 5×10^5 CFU/mL, 18 hours at 35° C.

Row | SMILES | MIC Enterococcus faecalis (ATCC 29212) (Enterococcus sp.) | MIC Enterococcus faecalis (GC 2242) (Enterococcus sp.; strain GC 2242) | MIC Enterococcus faecalis (GC 4552) (Enterococcus sp.) | MIC Escherichia coli (GC 4559) (Escherichia coli; strain GC 4559) | MIC Escherichia coli (GC 4560) (Escherichia coli; strain GC 4560) | MIC Staphylococcus aureus (ATCC 29213) (Staphylococcus sp.; [1]) | MIC Staphylococcus aureus (GC 1131) (Staphylococcus sp.; [1]) | MIC Staphylococcus aureus (GC 4535) (Staphylococcus sp.; [1]) | MIC Staphylococcus aureus SMITH (GC 4536) (Staphylococcus sp.; [1]) | MIC Coagulase Negative Staphylococcus (GC 4537) (Staphylococcus sp.) | MIC Coagulase Negative Staphylococcus (GC 4538) (Staphylococcus sp.) | MIC Coagulase Negative Staphylococcus (GC 4547) (Staphylococcus sp.) | MIC Staphylococcus aureus-SMITH (GC 4536) (Staphylococcus sp.; [2]) | MIC Coagulase Negative Staphylococcus (GC 4537) (Staphylococcus sp.; [1]) | MIC Coagulase Negative Staphylococcus (GC 4538) (Staphylococcus sp.; [1]) | MIC Coagulase Negative Staphylococcus (GC 4547) (Staphylococcus sp.; [1]) | other results
1 | CC(c1ccccc1)C1NC(=O)CNC(=O)C(CO)NC(=O)C(C(O)C2CNC(=N)N2C2OC(CO)C(O)C(O)C2O)NC(=O)C(C(O)C2CNC(=N)N2)NC(=O)C(Cc2ccc(OC3OC(COC(=O)Cc4ccccc4)C(OC4OC(CO)C(O)C(O)C4O)C(O)C3O)cc2)NC1=O (centres unmarked) [Example 98b] | 64 µg/mL (≈ 45.3 µM) | 64 µg/mL (≈ 45.3 µM) |  |  | 2 µg/mL (≈ 1.42 µM) | 16 µg/mL (≈ 11.3 µM) | 16 µg/mL (≈ 11.3 µM) | 16 µg/mL (≈ 11.3 µM) | 8 µg/mL (≈ 5.66 µM) | 16 µg/mL (≈ 11.3 µM) | 8 µg/mL (≈ 5.66 µM) | 8 µg/mL (≈ 5.66 µM) | 8 µg/mL (≈ 5.66 µM) | 16 µg/mL (≈ 11.3 µM) | 8 µg/mL (≈ 5.66 µM) | 8 µg/mL (≈ 5.66 µM) | 
2 | CC(c1ccccc1)C1NC(=O)CNC(=O)C(CO)NC(=O)C(C(O)C2CNC(=N)N2C2OC(CO)C(O)C(O)C2O)NC(=O)C(C(O)C2CNC(=N)N2)NC(=O)C(Cc2ccc(OC3OC(CO)C(OC4OC(COC(=O)Cc5ccccc5)C(O)C(O)C4O)C(O)C3O)cc2)NC1=O (stereo not drawn) [Example 98c, Cyclo[glycyl-β-methylphenylalanyl-O-[4-O-[6-O-(phenylacetyl)hexopyranosyl]hexopyranosyl]-tyrosyl-3-(2-iminoimidazolidin-4-yl)seryl-3-(3-hexopyranosyl-2-iminoimidazolidin-4-yl)-serylseryl]] | 16 µg/mL (≈ 11.3 µM) | 8 µg/mL (≈ 5.66 µM) | 16 µg/mL (≈ 11.3 µM) | 64 µg/mL (≈ 45.3 µM) | 0.5 µg/mL (≈ 0.354 µM) | 2 µg/mL (≈ 1.42 µM) | 2 µg/mL (≈ 1.42 µM) | 4 µg/mL (≈ 2.83 µM) | 2 µg/mL (≈ 1.42 µM) | 2 µg/mL (≈ 1.42 µM) | 1 µg/mL (≈ 0.708 µM) | 1 µg/mL (≈ 0.708 µM) | 2 µg/mL (≈ 1.42 µM) | 2 µg/mL (≈ 1.42 µM) | 1 µg/mL (≈ 0.708 µM) | 1 µg/mL (≈ 0.708 µM) | 
3 | CC(c1ccccc1)C1NC(=O)CNC(=O)C(CO)NC(=O)C(C(O)C2CNC(=N)N2C2OC(CO)C(O)C(O)C2O)NC(=O)C(C(O)C2CNC(=N)N2)NC(=O)C(Cc2ccc(OC3OC(COC(=O)CCC4CCCC4)C(OC4OC(CO)C(O)C(O)C4O)C(O)C3O)cc2)NC1=O (stereo not drawn) [Example 100b, Cyclo[glycyl-β-methylphenylalanyl-O-[6-O-(3-cyclopentylpropanoyl)-4-O-hexopyranosyl-hexopyranosyl]tyrosyl-3-(2-iminoimidazolidin-4-yl)seryl-3-(3-hexopyranosyl-2-iminoimidazolidin-4-yl)serylseryl]] |  |  |  |  |  |  |  |  |  | 2 µg/mL (≈ 1.41 µM) | 1 µg/mL (≈ 0.704 µM) | 1 µg/mL (≈ 0.704 µM) | 2 µg/mL (≈ 1.41 µM) | 2 µg/mL (≈ 1.41 µM) | 1 µg/mL (≈ 0.704 µM) | 1 µg/mL (≈ 0.704 µM) | MIC Enterococccus faecalis (ATCC 29212) (Enterococcus sp.; [3]): 8 µg/mL (≈ 5.64 µM); MIC Enterococccus faecalis (GC 4552) (Enterococcus sp.; [3]): 8 µg/mL (≈ 5.64 µM); MIC Enterococcus faecalis (GC 2242) (Enterococcus sp.; [3]): 8 µg/mL (≈ 5.64 µM); MIC Escherichia coli (GC 4560) (Escherichia coli; [4]): 0.5 µg/mL (≈ 0.352 µM); MIC Staphylococcus aureus (ATCC 29213) (Staphylococcus sp.; strain ATCC 29213): 2 µg/mL (≈ 1.41 µM); MIC Staphylococcus aureus (GC 1131) (Staphylococcus sp.; strain GC 1131): 2 µg/mL (≈ 1.41 µM); MIC Staphylococcus aureus (GC 4535) (Staphylococcus sp.; strain GC 4535): 2 µg/mL (≈ 1.41 µM); MIC Staphylococcus aureus-SMITH (GC 4536) (Staphylococcus sp.; strain GC 4536): 2 µg/mL (≈ 1.41 µM)
4 | CC(c1ccccc1)C1NC(=O)CNC(=O)C(CO)NC(=O)C(C(O)C2CNC(=N)N2C2OC(CO)C(O)C(O)C2O)NC(=O)C(C(O)C2CNC(=N)N2)NC(=O)C(Cc2ccc(OC3OC(CO)C(OC4OC(COC(=O)CCC5CCCC5)C(O)C(O)C4O)C(O)C3O)cc2)NC1=O (stereo not drawn) [Example 100c, Cyclo[glycyl-β-methylphenylalanyl-O-[4-O-[6-O-(3-cyclopentylpropanoyl)hexopyranosyl]-hexopyranosyl]tyrosyl-3-(2-iminoimidazolidin-4-yl)seryl-3-(3-hexopyranosyl-2-iminoimidazolidin-4-yl)serylseryl]] |  |  |  |  |  |  |  |  |  | 1 µg/mL (≈ 0.704 µM) | 1 µg/mL (≈ 0.704 µM) | 1 µg/mL (≈ 0.704 µM) | 1 µg/mL (≈ 0.704 µM) | 1 µg/mL (≈ 0.704 µM) | 1 µg/mL (≈ 0.704 µM) | 1 µg/mL (≈ 0.704 µM) | MIC Enterococccus faecalis (ATCC 29212) (Enterococcus sp.; [3]): 4 µg/mL (≈ 2.82 µM); MIC Enterococccus faecalis (GC 4552) (Enterococcus sp.; [3]): 4 µg/mL (≈ 2.82 µM); MIC Enterococcus faecalis (GC 2242) (Enterococcus sp.; [3]): 2 µg/mL (≈ 1.41 µM); MIC Escherichia coli (GC 4559) (Escherichia coli; [4]): 32 µg/mL (≈ 22.5 µM); MIC Escherichia coli (GC 4560) (Escherichia coli; [4]): 0.5 µg/mL (≈ 0.352 µM); MIC Staphylococcus aureus (ATCC 29213) (Staphylococcus sp.; strain ATCC 29213): 1 µg/mL (≈ 0.704 µM); MIC Staphylococcus aureus (GC 1131) (Staphylococcus sp.; strain GC 1131): 1 µg/mL (≈ 0.704 µM); MIC Staphylococcus aureus (GC 4535) (Staphylococcus sp.; strain GC 4535): 1 µg/mL (≈ 0.704 µM); MIC Staphylococcus aureus-SMITH (GC 4536) (Staphylococcus sp.; strain GC 4536): 1 µg/mL (≈ 0.704 µM)

Further lines, with some results ahead:

Row | MIC Enterococcus faecalis (ATCC 29212) (Enterococcus sp.) | MIC Enterococcus faecalis (GC 2242) (Enterococcus sp.; strain GC 2242) | MIC Enterococcus faecalis (GC 4552) (Enterococcus sp.) | MIC Escherichia coli (GC 4559) (Escherichia coli; strain GC 4559) | MIC Escherichia coli (GC 4560) (Escherichia coli; strain GC 4560) | MIC Staphylococcus aureus (ATCC 29213) (Staphylococcus sp.; [1]) | MIC Staphylococcus aureus (GC 1131) (Staphylococcus sp.; [1]) | MIC Staphylococcus aureus (GC 4535) (Staphylococcus sp.; [1]) | MIC Staphylococcus aureus SMITH (GC 4536) (Staphylococcus sp.; [1]) | MIC Coagulase Negative Staphylococcus (GC 4537) (Staphylococcus sp.) | MIC Coagulase Negative Staphylococcus (GC 4538) (Staphylococcus sp.) | MIC Coagulase Negative Staphylococcus (GC 4547) (Staphylococcus sp.) | MIC Staphylococcus aureus-SMITH (GC 4536) (Staphylococcus sp.; [2]) | MIC Coagulase Negative Staphylococcus (GC 4537) (Staphylococcus sp.; [1]) | MIC Coagulase Negative Staphylococcus (GC 4538) (Staphylococcus sp.; [1]) | MIC Coagulase Negative Staphylococcus (GC 4547) (Staphylococcus sp.; [1]) | SMILES | other results
5 | 32 µg/mL (≈ 23 µM) | 16 µg/mL (≈ 11.5 µM) | 32 µg/mL (≈ 23 µM) | >64 µg/mL | 2 µg/mL (≈ 1.44 µM) | 4 µg/mL (≈ 2.87 µM) | 4 µg/mL (≈ 2.87 µM) | 8 µg/mL (≈ 5.74 µM) | 4 µg/mL (≈ 2.87 µM) | 8 µg/mL (≈ 5.74 µM) | 4 µg/mL (≈ 2.87 µM) | 4 µg/mL (≈ 2.87 µM) | 4 µg/mL (≈ 2.87 µM) |  |  |  | CCCCCC(=O)OCC1OC(Oc2ccc(CC3NC(=O)C(C(C)c4ccccc4)NC(=O)CNC(=O)C(CO)NC(=O)C(C(O)C4CNC(=N)N4C4OC(CO)C(O)C(O)C4O)NC(=O)C(C(O)C4CNC(=N)N4)NC3=O)cc2)C(O)C(O)C1OC1OC(CO)C(O)C(O)C1O (stereo not drawn) [Example 95a, Cyclo[glycyl-β-methylphenylalanyl-O-(6-O-hexanoyl-4-O-hexopyranosylhexopyranosyl)-tyrosyl-3-(2-iminoimidazolidin-4-yl)seryl-3-(3-hexopyranosyl-2-iminoimidazolidin-4-yl)-serylseryl]] | MIC Enterococcus faecalis (GC 2242) (Enterococcus sp.; Enterococcus faecalis (GC 2242), broth dilution, 18 hours at 35° C.): 16 µg/mL (≈ 11.5 µM)
6 | >64 µg/mL | >64 µg/mL | >64 µg/mL | >64 µg/mL | 2 µg/mL (≈ 1.42 µM) | >64 µg/mL | >64 µg/mL | >64 µg/mL | >64 µg/mL | >64 µg/mL | >64 µg/mL | >64 µg/mL | >64 µg/mL | >64 µg/mL | >64 µg/mL | >64 µg/mL | CCCCCCC(=O)OCC1OC(N2C(=N)NCC2C(O)C2NC(=O)C(C(O)C3CNC(=N)N3)NC(=O)C(Cc3ccc(OC4OC(CO)C(OC5OC(CO)C(O)C(O)C5O)C(O)C4O)cc3)NC(=O)C(C(C)c3ccccc3)NC(=O)CNC(=O)C(CO)NC2=O)C(O)C(O)C1O (centres unmarked) [Example 97] | 
7 | 8 µg/mL (≈ 5.68 µM) | 4 µg/mL (≈ 2.84 µM) | 16 µg/mL (≈ 11.4 µM) | >64 µg/mL | 1 µg/mL (≈ 0.711 µM) | 1 µg/mL (≈ 0.711 µM) | 2 µg/mL (≈ 1.42 µM) | 2 µg/mL (≈ 1.42 µM) | 0.5 µg/mL (≈ 0.355 µM) | 4 µg/mL (≈ 2.84 µM) | 2 µg/mL (≈ 1.42 µM) | 2 µg/mL (≈ 1.42 µM) | 0.5 µg/mL (≈ 0.355 µM) | 4 µg/mL (≈ 2.84 µM) | 2 µg/mL (≈ 1.42 µM) | 2 µg/mL (≈ 1.42 µM) | CCCCCCC(=O)OCC1OC(Oc2ccc(CC3NC(=O)C(C(C)c4ccccc4)NC(=O)CNC(=O)C(CO)NC(=O)C(C(O)C4CNC(=N)N4C4OC(CO)C(O)C(O)C4O)NC(=O)C(C(O)C4CNC(=N)N4)NC3=O)cc2)C(O)C(O)C1OC1OC(CO)C(O)C(O)C1O (stereo not drawn) [Example 97a, Cyclo[glycyl-β-methylphenylalanyl-O-(6-O-heptanoyl-4-O-hexopyranosylhexopyranosyl)-tyrosyl-3-(2-iminoimidazolidin-4-yl)seryl-3-(3-hexopyranosyl-2-iminoimidazolidin-4-yl)-serylseryl]] | 
